Measured values as given in PMC6219668 (Oncotarget, 2018).

Tested on: panel of nearly 500 cancer cell lines
Assay: Cancer Cell Line Encyclopedia profiling, 3-day CellTiter-Glo
Format: cell-based
Design: Amax: unit not given here

`CC(=O)c1c(C)c2cnc(Nc3ccc(N4CCNCC4)cn3)nc2n(C2CCCC2)c1=O` [Palbociclib, reference compound] gave an EC50 (Homo sapiens, P3HR-1) greater than 8 µM, an EC50 (Homo sapiens, P31-FUJ) greater than 8 µM and an EC50 (Homo sapiens, PANC-03-27) greater than 8 µM. The EC50 (Homo sapiens, PLC-PRF-5) was 1.79 µM, the EC50 (Homo sapiens, Panc 02.03) was 1.14 µM and the EC50 (Homo sapiens, Panc 04.03) was greater than 8 µM. For the same compound, the EC50 (Homo sapiens, Panc1005) was greater than 8 µM, the EC50 (Homo sapiens, Pfeiffer) was 6.95 µM and the EC50 (Homo sapiens, RL95-2) was greater than 8 µM. The EC50 (Homo sapiens, RT-112) was 2.29 µM, the EC50 (Homo sapiens, RVH-421) was 0.689 µM and the EC50 (Homo sapiens, Raji) was greater than 8 µM. For the same compound, the EC50 (Homo sapiens, SAOS-2) was greater than 8 µM, the EC50 (Homo sapiens, SBC-5) was 1.11 µM and the EC50 (Homo sapiens, SCC-25) was 0.782 µM. The EC50 (Homo sapiens, SCaBER) was greater than 8 µM, the EC50 (Homo sapiens, SF-126) was greater than 8 µM and the EC50 (Homo sapiens, SF-295) was greater than 8 µM. It also gave an EC50 (Homo sapiens, SHP77) greater than 8 µM, an EC50 (Homo sapiens, SJRH30) greater than 8 µM and an EC50 (Homo sapiens, SJSA-1) greater than 8 µM. The EC50 (Homo sapiens, SK-BR-3) was greater than 8 µM, the EC50 (Homo sapiens, SK-CO-1) was greater than 8 µM and the EC50 (Homo sapiens, SK-ES1) was 6.37 µM. For the same compound, the EC50 (Homo sapiens, SK-HEP1) was 0.516 µM, the EC50 (Homo sapiens, SK-LU-1) was greater than 8 µM and the EC50 (Homo sapiens, SK-MEL-2) was greater than 8 µM. The EC50 (Homo sapiens, SK-MEL-5) was greater than 8 µM, the EC50 (Homo sapiens, SK-MEL-24) was greater than 8 µM and the EC50 (Homo sapiens, SK-MEL-30) was greater than 8 µM. It also gave an EC50 (Homo sapiens, SK-MM-2) of 2.62 µM, an EC50 (Homo sapiens, SK-N-AS) of 1.11 µM and an EC50 (Homo sapiens, SK-N-DZ) of 2.73 µM. It also gave an EC50 (Homo sapiens, SK-N-SH) of 1.25 µM, an EC50 (Homo sapiens, SK-OV-3) of 2.22 µM and an EC50 (Homo sapiens, SKNBE2) of 4.99 µM. For the same compound, the EC50 (Homo sapiens, SNU1) was greater than 8 µM, the EC50 (Homo sapiens, SNU-16) was greater than 8 µM and the EC50 (Homo sapiens, SNU-182) was greater than 8 µM. It also gave an EC50 (Homo sapiens, SNU-423) of 2.01 µM, an EC50 (Homo sapiens, SNU-449) greater than 8 µM and an EC50 (Homo sapiens, SNU-C2B) greater than 8 µM. The EC50 (Homo sapiens, SU-DHL10) was 3.42 µM, the EC50 (Homo sapiens, SU-DHL-8) was 0.475 µM and the EC50 (Homo sapiens, SU.86.86) was greater than 8 µM. It also gave an EC50 (Homo sapiens, SUP-T1) greater than 8 µM, an EC50 (Homo sapiens, SW48) greater than 8 µM and an EC50 (Homo sapiens, SW480) of 1.24 µM. The EC50 (Homo sapiens, SW780) was 0.832 µM, the EC50 (Homo sapiens, SW900) was greater than 8 µM and the EC50 (Homo sapiens, SW1353) was greater than 8 µM. For the same compound, the EC50 (Homo sapiens, SW1990) was 5.78 µM, the EC50 (Homo sapiens, SW-403) was greater than 8 µM and the EC50 (Homo sapiens, SW-620) was 2.93 µM. It also gave an EC50 (Homo sapiens, T47D) greater than 8 µM, an EC50 (Homo sapiens, T98G) greater than 8 µM and an EC50 (Homo sapiens, TCC-SUP) of 2.08 µM. For the same compound, the EC50 (Homo sapiens, TOV21G) was greater than 8 µM, the EC50 (Homo sapiens, TOV112D) was 2.03 µM and the EC50 (Homo sapiens, Toledo) was greater than 8 µM. For the same compound, the EC50 (Homo sapiens, U2OS) was 3.62 µM, the EC50 (Homo sapiens, U-87 MG) was 2.01 µM and the EC50 (Homo sapiens, U-118-MG) was 0.523 µM. The EC50 (Homo sapiens, U-937) was greater than 8 µM, the EC50 (Homo sapiens, UACC-812) was greater than 8 µM and the EC50 (Homo sapiens, UMUC3) was greater than 8 µM. It also gave an EC50 (Homo sapiens, YKG-1) of 7.39 µM, an EC50 (Homo sapiens, ZR-75-30) greater than 8 µM and an EC50 (Hs766T) of 1.52 µM. The EC50 (IGR-39) was greater than 8 µM, the EC50 (JHH-2) was greater than 8 µM and the EC50 (JHH-4) was greater than 8 µM. For the same compound, the EC50 (JMSU-1) was 1.32 µM, the EC50 (KE-97) was 2.26 µM and the EC50 (KMRC-1) was greater than 8 µM. For the same compound, the EC50 (KMS-26) was 1.33 µM, the EC50 (LOU-NH91) was greater than 8 µM and the EC50 (LUDLU-1) was 0.74 µM. For the same compound, the EC50 (NCI-H322) was greater than 8 µM, the EC50 (NCI-H1568) was 2.63 µM and the EC50 (NCI-H1915) was greater than 8 µM. For the same compound, the EC50 (NCI-H2023) was 1.12 µM, the EC50 (NCI-H2172) was greater than 8 µM and the EC50 (OCUM1) was 1.37 µM. For the same compound, the EC50 (OE21) was 4.75 µM, the EC50 (ONCO-DG-1) was greater than 8 µM and the EC50 (PK-59) was 1.51 µM. It also gave an EC50 (PL45) greater than 8 µM, an EC50 (SH-10-TC) greater than 8 µM and an EC50 (SUIT-2) of 1.18 µM. For the same compound, the EC50 (SUP-M2) was greater than 8 µM, the EC50 (SW579) was 1.3 µM and the EC50 (SW1271) was greater than 8 µM. It also gave an EC50 (TC-71) greater than 8 µM, an Amax (a172 (central_nervous_system)) of 3.605 and an Amax (a204 (soft_tissue)) of -34.4227. It also gave an Amax (a253 (salivary_gland)) of 3.868, an Amax (a375 (skin)) of -26.2658 and an Amax (a2058 (skin)) of 2.616. For the same compound, the Amax (a2780 (ovary)) was -39.663, the Amax (gb1 (central_nervous_system)) was -42.437 and the Amax (gciy (stomach)) was -7.059. The Amax (gct (soft_tissue)) was -52.5722, the Amax (glc82 (lung)) was -19.1977 and the Amax (gms10 (central_nervous_system)) was -27.0424. For the same compound, the Amax (h4 (central_nervous_system)) was -32.9184, the Amax (hcc15 (lung)) was -12.0125 and the Amax (hcc56 (large_intestine)) was -4.352. The Amax (hcc70 (breast)) was -11.029, the Amax (hcc78 (lung)) was -19.9044 and the Amax (hcc1187 (breast)) was -9.361. For the same compound, the Amax (hcc1569 (breast)) was -39.1174, the Amax (hcc1806 (breast)) was 0.7921 and the Amax (hcc1954 (breast)) was -54.5847. The Amax (hcc2935 (lung)) was -14.5087, the Amax (hcc4006 (lung)) was -19.6287 and the Amax (hct15 (large_intestine)) was -2.41. The Amax (hct116 (large_intestine)) was 1.94, the Amax (hec1a (endometrium)) was -22.7551 and the Amax (hec1b (endometrium)) was -58.5184. It also gave an Amax (hec59 (endometrium)) of -33.0687, an Amax (hec151 (endometrium)) of -3.536 and an Amax (hec251 (endometrium)) of -0.6256. For the same compound, the Amax (hec265 (endometrium)) was 2.121, the Amax (hel9217 (haematopoietic_and_lymphoid_tissue)) was 11.0391 and the Amax (hep3b217 (liver)) was 6.257. The Amax (hepg2 (liver)) was -38.1063, the Amax (heya8 (ovary)) was -39.168 and the Amax (hgc27 (stomach)) was -60.1752. It also gave an Amax (hh (haematopoietic_and_lymphoid_tissue)) of -43.6309, an Amax (hle (liver)) of -2.411 and an Amax (hlf (liver)) of 2.5318. For the same compound, the Amax (hmc18 (breast)) was -23.3461, the Amax (hmcb (skin)) was -32.1017 and the Amax (hos (bone)) was -5.005. It also gave an Amax (hpac (pancreas)) of -39.6565, an Amax (hs229t (lung)) of -46.3597 and an Amax (hs294t (skin)) of -3.363. The Amax (hs578t (breast)) was -24.7522, the Amax (hs683 (central_nervous_system)) was -14.5926 and the Amax (hs695t (skin)) was -1.411. The Amax (hs739t (breast)) was -16.3381, the Amax (hs746t (stomach)) was -17.4326 and the Amax (hs766t (pancreas)) was -19.984. The Amax (hs840t (upper_aerodigestive_tract)) was -48.5098, the Amax (hs852t (skin)) was -23.0246 and the Amax (hs895t (skin)) was -52.8812. It also gave an Amax (hs936t (skin)) of -33.7794, an Amax (hs939t (skin)) of -41.6297 and an Amax (hs944t (skin)) of -2.178. The Amax (hsc2 (upper_aerodigestive_tract)) was 2.874, the Amax (ht29 (large_intestine)) was -25.1424 and the Amax (ht144 (skin)) was 4.385. The Amax (ht1080 (soft_tissue)) was 5.952, the Amax (ht1197 (urinary_tract)) was 6.185 and the Amax (ht1376 (urinary_tract)) was 5.627. It also gave an Amax (ht (haematopoietic_and_lymphoid_tissue)) of 15.5049, an Amax (hucct1 (biliary_tract)) of -2.064 and an Amax (huh1 (liver)) of -48.0113. It also gave an Amax (hupt3 (pancreas)) of -32.9102, an Amax (hupt4 (pancreas)) of -9.371 and an Amax (hut78 (haematopoietic_and_lymphoid_tissue)) of -6.156. It also gave an Amax (ialm (lung)) of 2.617, an Amax (igr37 (skin)) of -4.699 and an Amax (igr39 (skin)) of 3.52. It also gave an Amax (igrov1 (ovary)) of 1.295, an Amax (imr32 (autonomic_ganglia)) of -46.7636 and an Amax (ipc298 (skin)) of -1.835. The Amax (istmes1 (pleura)) was -16.4542, the Amax (istmes2 (pleura)) was -52.8976 and the Amax (j82 (urinary_tract)) was -1.0373. It also gave an Amax (jhh2 (liver)) of -0.7698, an Amax (jhh4 (liver)) of 0.2039 and an Amax (jhh6 (liver)) of 2.0754. It also gave an Amax (jhos2 (ovary)) of 7.671, an Amax (jhos4 (ovary)) of 13.7773 and an Amax (jm1 (haematopoietic_and_lymphoid_tissue)) of -48.4258. It also gave an Amax (jmsu1 (urinary_tract)) of -46.3166, an Amax (k029ax (skin)) of -20.9241 and an Amax (kals1 (central_nervous_system)) of 3.749. The Amax (karpas299 (haematopoietic_and_lymphoid_tissue)) was -53.2153, the Amax (karpas422 (haematopoietic_and_lymphoid_tissue)) was 0.8347 and the Amax (ke39 (stomach)) was -57.8035. For the same compound, the Amax (ke97 (haematopoietic_and_lymphoid_tissue)) was -62.2019, the Amax (kg1 (haematopoietic_and_lymphoid_tissue)) was 7.475 and the Amax (kle (endometrium)) was -0.3583. For the same compound, the Amax (kmbc2 (urinary_tract)) was -20.7254, the Amax (kmrc1 (kidney)) was -29.7335 and the Amax (kms12bm (haematopoietic_and_lymphoid_tissue)) was -27.7827. The Amax (kms26 (haematopoietic_and_lymphoid_tissue)) was -78.7112 and the Amax (kns42 (central_nervous_system)) was -28.8816.
